Data reported in ChEMBL document CHEMBL4507269, “Data for DCP probe BAY-386” (2021).

How the values were obtained:
[1] = test system: Tyrosine-protein kinase ABL1 (Homo sapiens), P00519 [F317L]; settings: Compound concentration 1000.0 nM
[2] = target: NUAK family SNF1-like kinase 1 (Homo sapiens) (UniProt O60285); settings: Compound concentration 1000.0 nM
[3] = target: Tyrosine-protein kinase receptor UFO (Homo sapiens) (UniProt P30530); settings: Compound concentration 1000.0 nM
[4] = target: Cyclin-dependent kinase 7 (Homo sapiens) (UniProt P50613); settings: Compound concentration 1000.0 nM
[5] = target: Serine/threonine-protein kinase Chk1 (Homo sapiens) (UniProt O14757); settings: Compound concentration 1000.0 nM
[6] = target: Serine/threonine-protein kinase DCLK2 (Homo sapiens) (UniProt Q8N568); settings: Compound concentration 1000.0 nM
[7] = test system: Epidermal growth factor receptor (Homo sapiens), P00533 [G719C]; settings: Compound concentration 1000.0 nM
[8] = test system: Epidermal growth factor receptor (Homo sapiens), P00533 [UNDEFINED MUTATION]; settings: Compound concentration 1000.0 nM
[9] = target: Mitogen-activated protein kinase 3 (Homo sapiens) (UniProt P27361); settings: Compound concentration 1000.0 nM
[10] = target: Fibroblast growth factor receptor 1 (Homo sapiens) (UniProt P11362); settings: Compound concentration 1000.0 nM
[11] = target: Fibroblast growth factor receptor 2 (Homo sapiens) (UniProt P21802); settings: Compound concentration 1000.0 nM
[12] = test system: Receptor-type tyrosine-protein kinase FLT3 (Homo sapiens), P36888 [R834Q]; settings: Compound concentration 1000.0 nM
[13] = test system: eIF-2-alpha kinase GCN2 (Homo sapiens), Q9P2K8 [S808G]; settings: Compound concentration 1000.0 nM
[14] = target: Insulin-like growth factor 1 receptor (Homo sapiens) (UniProt P08069); settings: Compound concentration 1000.0 nM
[15] = target: Tyrosine-protein kinase JAK1 (Homo sapiens) (UniProt P23458); settings: Compound concentration 1000.0 nM
[16] = target: Mitogen-activated protein kinase 9 (Homo sapiens) (UniProt P45984); settings: Compound concentration 1000.0 nM
[17] = test system: Mast/stem cell growth factor receptor Kit (Homo sapiens), P10721 [D816H]; settings: Compound concentration 1000.0 nM
[18] = target: Leucine-rich repeat serine/threonine-protein kinase 2 (Homo sapiens) (UniProt Q5S007); settings: Compound concentration 1000.0 nM
[19] = target: Mitogen-activated protein kinase kinase kinase kinase 3 (Homo sapiens) (UniProt Q8IVH8); settings: Compound concentration 1000.0 nM
[20] = target: Dual specificity mitogen-activated protein kinase kinase 6 (Homo sapiens) (UniProt P52564); settings: Compound concentration 1000.0 nM
[21] = test system: Hepatocyte growth factor receptor (Homo sapiens), P08581 [Y1235D]; settings: Compound concentration 1000.0 nM
[22] = target: Myosin light chain kinase (Homo sapiens) (UniProt Q32MK0); settings: Compound concentration 1000.0 nM
[23] = target: Serine/threonine-protein kinase PAK 1 (Homo sapiens) (UniProt Q13153); settings: Compound concentration 1000.0 nM
[24] = target: Cyclin-dependent kinase 18 (Homo sapiens) (UniProt Q07002); settings: Compound concentration 1000.0 nM
[25] = target: Platelet-derived growth factor receptor alpha (Homo sapiens) (UniProt P16234); settings: Compound concentration 1000.0 nM
[26] = test system: Phosphatidylinositol 4,5-bisphosphate 3-kinase catalytic subunit alpha isoform (Homo sapiens), P42336 [H1047Y]; settings: Compound concentration 1000.0 nM
[27] = test system: Phosphatidylinositol 4,5-bisphosphate 3-kinase catalytic subunit alpha isoform (Homo sapiens), P42336 [Q546K]; settings: Compound concentration 1000.0 nM
[28] = target: Serine/threonine-protein kinase PLK4 (Homo sapiens) (UniProt O00444); settings: Compound concentration 1000.0 nM
[29] = target: RAF proto-oncogene serine/threonine-protein kinase (Homo sapiens) (UniProt P04049); settings: Compound concentration 1000.0 nM
[30] = target: Serine/threonine-protein kinase RIO2 (Homo sapiens) (UniProt Q9BVS4); settings: Compound concentration 1000.0 nM
[31] = target: Ribosomal protein S6 kinase alpha-6 (Homo sapiens) (UniProt Q9UK32); settings: Compound concentration 1000.0 nM
[32] = target: Ribosomal protein S6 kinase beta-1 (Homo sapiens) (UniProt P23443); settings: Compound concentration 1000.0 nM
[33] = target: TGF-beta receptor type-1 (Homo sapiens) (UniProt P36897); settings: Compound concentration 1000.0 nM
[34] = target: TGF-beta receptor type-2 (Homo sapiens) (UniProt P37173); settings: Compound concentration 1000.0 nM
[35] = target: Vascular endothelial growth factor receptor 2 (Homo sapiens) (UniProt P35968); settings: Compound concentration 1000.0 nM
[36] = target: Wee1-like protein kinase (Homo sapiens) (UniProt P30291); settings: Compound concentration 1000.0 nM
[37] = target: 5-hydroxytryptamine receptor 2A (Homo sapiens) (UniProt P28223); settings: Compound concentration 10.0 uM
[38] = target: 5-hydroxytryptamine receptor 2C (Homo sapiens) (UniProt P28335); settings: Compound concentration 10.0 uM
[39] = target: T1, D(4) dopamine receptor (Homo sapiens) (UniProt P21917); settings: Compound concentration 10.0 uM
T1 sequence (whole entry): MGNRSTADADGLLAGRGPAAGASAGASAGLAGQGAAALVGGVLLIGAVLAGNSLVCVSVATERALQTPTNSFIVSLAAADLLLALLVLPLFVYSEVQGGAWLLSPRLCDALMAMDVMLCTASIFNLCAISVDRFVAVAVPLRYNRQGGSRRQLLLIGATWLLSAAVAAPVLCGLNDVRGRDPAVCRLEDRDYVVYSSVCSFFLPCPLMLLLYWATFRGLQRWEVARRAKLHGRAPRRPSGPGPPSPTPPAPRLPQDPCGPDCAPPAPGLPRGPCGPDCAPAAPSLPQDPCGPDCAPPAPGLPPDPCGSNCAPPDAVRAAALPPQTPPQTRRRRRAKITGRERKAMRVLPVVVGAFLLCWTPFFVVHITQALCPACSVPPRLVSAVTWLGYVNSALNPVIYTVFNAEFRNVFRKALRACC

Sequence of Fibroblast growth factor receptor 1 (Homo sapiens) (P11362 22-822 limits assumed): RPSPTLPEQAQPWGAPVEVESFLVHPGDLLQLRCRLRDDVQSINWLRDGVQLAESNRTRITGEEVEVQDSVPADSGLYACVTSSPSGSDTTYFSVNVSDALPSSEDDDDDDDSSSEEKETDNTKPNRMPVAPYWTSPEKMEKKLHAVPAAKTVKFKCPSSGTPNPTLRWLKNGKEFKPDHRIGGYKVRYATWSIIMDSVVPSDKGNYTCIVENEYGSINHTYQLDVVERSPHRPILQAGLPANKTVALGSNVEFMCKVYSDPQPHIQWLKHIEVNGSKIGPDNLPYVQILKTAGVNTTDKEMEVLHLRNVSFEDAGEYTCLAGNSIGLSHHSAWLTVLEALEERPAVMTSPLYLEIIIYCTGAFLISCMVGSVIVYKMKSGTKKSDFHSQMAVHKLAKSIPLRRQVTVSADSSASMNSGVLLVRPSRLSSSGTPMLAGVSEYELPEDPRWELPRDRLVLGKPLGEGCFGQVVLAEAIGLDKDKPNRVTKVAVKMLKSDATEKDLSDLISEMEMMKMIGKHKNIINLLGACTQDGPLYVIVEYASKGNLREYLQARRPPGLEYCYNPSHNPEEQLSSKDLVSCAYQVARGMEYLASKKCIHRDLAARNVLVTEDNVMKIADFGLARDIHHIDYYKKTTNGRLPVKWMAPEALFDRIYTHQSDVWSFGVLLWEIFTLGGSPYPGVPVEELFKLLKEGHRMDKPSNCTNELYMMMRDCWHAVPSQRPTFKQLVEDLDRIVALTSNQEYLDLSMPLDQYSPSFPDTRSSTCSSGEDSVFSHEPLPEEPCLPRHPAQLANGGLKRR
Sequence of NUAK family SNF1-like kinase 1 (Homo sapiens) (O60285 whole entry): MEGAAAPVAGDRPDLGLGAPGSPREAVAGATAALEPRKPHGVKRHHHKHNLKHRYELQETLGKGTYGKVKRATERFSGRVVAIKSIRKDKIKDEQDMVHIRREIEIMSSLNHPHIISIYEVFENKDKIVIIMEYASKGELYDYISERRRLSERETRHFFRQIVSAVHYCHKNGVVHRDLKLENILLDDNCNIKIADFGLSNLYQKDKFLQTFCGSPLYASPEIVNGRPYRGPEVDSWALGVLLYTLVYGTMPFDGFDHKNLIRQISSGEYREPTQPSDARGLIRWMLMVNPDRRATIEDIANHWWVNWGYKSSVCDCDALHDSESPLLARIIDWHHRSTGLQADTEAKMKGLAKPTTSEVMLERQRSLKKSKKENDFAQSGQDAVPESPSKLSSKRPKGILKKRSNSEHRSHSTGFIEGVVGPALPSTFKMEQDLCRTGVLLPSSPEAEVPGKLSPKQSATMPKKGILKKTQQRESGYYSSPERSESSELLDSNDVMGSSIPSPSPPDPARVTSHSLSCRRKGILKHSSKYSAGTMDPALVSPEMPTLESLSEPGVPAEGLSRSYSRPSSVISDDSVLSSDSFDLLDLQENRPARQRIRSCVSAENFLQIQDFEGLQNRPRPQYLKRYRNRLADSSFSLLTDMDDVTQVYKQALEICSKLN
Sequence of eIF-2-alpha kinase GCN2 (Homo sapiens), Q9P2K8 [S808G] (Q9P2K8 whole entry S808G): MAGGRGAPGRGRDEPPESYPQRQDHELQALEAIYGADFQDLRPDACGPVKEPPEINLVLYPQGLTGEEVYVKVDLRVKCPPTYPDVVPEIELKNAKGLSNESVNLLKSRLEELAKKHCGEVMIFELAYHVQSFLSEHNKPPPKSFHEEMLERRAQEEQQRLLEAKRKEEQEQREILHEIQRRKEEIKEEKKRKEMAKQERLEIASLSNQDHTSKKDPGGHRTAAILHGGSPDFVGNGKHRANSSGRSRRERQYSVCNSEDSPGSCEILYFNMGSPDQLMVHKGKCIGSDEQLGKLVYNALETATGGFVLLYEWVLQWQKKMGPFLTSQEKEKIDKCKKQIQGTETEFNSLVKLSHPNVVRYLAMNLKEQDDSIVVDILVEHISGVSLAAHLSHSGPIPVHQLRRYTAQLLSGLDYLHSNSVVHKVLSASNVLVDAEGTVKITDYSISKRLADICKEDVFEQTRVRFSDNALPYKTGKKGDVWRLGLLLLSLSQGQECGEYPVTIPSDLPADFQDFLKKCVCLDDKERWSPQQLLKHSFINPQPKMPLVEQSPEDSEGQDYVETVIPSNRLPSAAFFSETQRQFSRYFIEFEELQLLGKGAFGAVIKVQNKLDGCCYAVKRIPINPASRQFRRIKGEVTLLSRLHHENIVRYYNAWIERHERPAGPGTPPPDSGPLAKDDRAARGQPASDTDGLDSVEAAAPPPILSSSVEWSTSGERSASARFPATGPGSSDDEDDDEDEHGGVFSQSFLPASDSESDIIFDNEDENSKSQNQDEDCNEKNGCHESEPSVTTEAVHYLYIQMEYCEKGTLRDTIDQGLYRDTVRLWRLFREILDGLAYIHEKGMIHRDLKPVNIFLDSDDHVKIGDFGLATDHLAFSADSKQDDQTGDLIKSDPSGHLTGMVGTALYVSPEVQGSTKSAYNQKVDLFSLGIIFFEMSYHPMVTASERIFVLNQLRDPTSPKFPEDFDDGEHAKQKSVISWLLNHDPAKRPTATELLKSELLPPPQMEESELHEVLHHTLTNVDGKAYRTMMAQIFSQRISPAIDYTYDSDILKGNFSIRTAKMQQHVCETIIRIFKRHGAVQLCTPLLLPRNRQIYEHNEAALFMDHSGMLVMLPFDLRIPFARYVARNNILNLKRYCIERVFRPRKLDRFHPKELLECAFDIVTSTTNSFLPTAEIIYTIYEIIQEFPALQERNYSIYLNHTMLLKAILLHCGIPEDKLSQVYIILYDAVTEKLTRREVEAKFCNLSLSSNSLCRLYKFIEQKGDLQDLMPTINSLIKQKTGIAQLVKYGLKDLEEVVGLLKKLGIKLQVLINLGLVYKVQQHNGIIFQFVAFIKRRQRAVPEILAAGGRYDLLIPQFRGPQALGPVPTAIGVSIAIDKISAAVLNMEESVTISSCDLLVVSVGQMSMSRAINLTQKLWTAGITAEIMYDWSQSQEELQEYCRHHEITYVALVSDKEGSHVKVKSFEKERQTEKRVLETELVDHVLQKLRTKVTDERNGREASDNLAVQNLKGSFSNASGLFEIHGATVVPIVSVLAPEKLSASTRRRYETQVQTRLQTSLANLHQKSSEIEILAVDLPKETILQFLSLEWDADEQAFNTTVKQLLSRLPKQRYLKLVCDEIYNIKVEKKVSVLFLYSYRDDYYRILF
Sequence of Wee1-like protein kinase (Homo sapiens) (P30291 whole entry, looked up): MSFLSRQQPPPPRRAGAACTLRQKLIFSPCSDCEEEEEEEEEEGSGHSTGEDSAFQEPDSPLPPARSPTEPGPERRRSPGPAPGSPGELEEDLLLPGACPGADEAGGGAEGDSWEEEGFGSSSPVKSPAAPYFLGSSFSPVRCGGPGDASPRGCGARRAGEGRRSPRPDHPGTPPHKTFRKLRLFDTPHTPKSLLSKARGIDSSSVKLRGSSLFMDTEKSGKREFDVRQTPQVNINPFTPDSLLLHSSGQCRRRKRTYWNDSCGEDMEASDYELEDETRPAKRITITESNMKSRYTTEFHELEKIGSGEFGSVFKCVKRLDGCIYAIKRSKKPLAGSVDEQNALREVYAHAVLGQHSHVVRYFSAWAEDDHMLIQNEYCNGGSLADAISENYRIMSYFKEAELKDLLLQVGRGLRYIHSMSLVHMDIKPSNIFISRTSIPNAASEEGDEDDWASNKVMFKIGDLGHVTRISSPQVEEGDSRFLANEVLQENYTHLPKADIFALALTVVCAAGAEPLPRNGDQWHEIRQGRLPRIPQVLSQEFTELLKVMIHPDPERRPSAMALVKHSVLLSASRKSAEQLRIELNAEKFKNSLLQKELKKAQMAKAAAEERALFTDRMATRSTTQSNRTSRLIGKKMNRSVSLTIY
Sequence of Tyrosine-protein kinase receptor UFO (Homo sapiens) (P30530 whole entry): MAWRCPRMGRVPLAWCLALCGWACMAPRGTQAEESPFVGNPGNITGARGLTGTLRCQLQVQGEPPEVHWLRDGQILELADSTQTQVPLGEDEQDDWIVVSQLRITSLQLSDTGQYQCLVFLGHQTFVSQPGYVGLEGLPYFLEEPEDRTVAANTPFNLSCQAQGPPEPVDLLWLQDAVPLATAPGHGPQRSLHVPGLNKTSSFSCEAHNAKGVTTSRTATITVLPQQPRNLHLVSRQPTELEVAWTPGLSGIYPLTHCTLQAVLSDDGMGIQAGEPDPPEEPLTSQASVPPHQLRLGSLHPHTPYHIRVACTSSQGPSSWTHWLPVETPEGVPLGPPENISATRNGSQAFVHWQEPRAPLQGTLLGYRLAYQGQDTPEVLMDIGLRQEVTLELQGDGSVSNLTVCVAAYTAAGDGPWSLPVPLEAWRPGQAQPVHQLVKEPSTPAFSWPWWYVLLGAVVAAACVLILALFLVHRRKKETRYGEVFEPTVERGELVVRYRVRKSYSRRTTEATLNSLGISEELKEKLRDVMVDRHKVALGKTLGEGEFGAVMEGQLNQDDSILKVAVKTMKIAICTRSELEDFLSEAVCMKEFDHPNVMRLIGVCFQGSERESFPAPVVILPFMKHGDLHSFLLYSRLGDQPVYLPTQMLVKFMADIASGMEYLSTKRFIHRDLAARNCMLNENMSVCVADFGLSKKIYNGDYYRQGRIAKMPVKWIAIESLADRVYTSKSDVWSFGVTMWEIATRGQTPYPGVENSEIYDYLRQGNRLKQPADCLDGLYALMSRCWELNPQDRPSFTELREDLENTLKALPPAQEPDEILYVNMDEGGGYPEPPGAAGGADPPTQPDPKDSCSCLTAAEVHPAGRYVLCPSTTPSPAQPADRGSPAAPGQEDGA
Sequence of Mitogen-activated protein kinase 9 (Homo sapiens) (P45984 whole entry, looked up): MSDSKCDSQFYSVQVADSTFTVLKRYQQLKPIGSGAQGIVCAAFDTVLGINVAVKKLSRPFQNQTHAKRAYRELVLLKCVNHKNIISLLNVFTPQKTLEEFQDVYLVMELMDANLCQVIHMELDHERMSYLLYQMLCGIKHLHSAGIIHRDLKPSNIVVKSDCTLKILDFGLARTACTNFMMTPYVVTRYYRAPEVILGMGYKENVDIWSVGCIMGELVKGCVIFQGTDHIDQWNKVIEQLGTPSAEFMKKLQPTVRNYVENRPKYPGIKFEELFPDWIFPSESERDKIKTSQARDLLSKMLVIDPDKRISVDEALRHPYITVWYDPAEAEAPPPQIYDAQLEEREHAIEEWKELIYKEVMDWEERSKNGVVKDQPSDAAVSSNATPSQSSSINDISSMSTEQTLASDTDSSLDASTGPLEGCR

Structure (SMILES)	residual activity [1]	residual activity [2]	residual activity [3]	residual activity [4]	residual activity [5]	residual activity [6]	residual activity [7]	residual activity [8]	residual activity [9]	residual activity [10]	residual activity [11]	residual activity [12]	residual activity [13]	residual activity [14]	residual activity [15]	residual activity [16]	residual activity [17]	residual activity [18]	residual activity [19]	residual activity [20]	other results
O=C(N1CCS(=O)(=O)CC1)N1C[C@H](c2ccc(OC(F)(F)F)cc2)C[C@H](c2nc(C3CC3)no2)C1 [BAY-386]	92%	97%	100%	100%	100%	0%	97%	100%	94%	100%	94%	100%	100%	100%	100%	84%	71%	100%	100%	100%	residual activity [21]: 100%; residual activity [22]: 79%; residual activity [23]: 100%; residual activity [24]: 0%; residual activity [25]: 100%; residual activity [26]: 100%; residual activity [27]: 83%; residual activity [28]: 100%; residual activity [29]: 100%; residual activity [30]: 100%; residual activity [31]: 100%; residual activity [32]: 100%; residual activity [33]: 100%; residual activity [34]: 100%; residual activity [35]: 88%; residual activity [36]: 100%; inhibition [37]: 10.5%; inhibition [38]: -4.94%; inhibition [39]: 5.24%
Cc1noc([C@H]2C[C@@H](c3ccc(C(F)(F)F)cc3)CN(C(=O)N3CCS(=O)(=O)C3)C2)n1 [BAY-448]	85%	100%	100%	89%	100%	100%	100%	78%	100%	100%	85%	91%	28%	100%	74%	99%	100%	65%	100%	100%	residual activity [21]: 100%; residual activity [22]: 100%; residual activity [23]: 79%; residual activity [24]: 97%; residual activity [25]: 100%; residual activity [26]: 95%; residual activity [27]: 100%; residual activity [28]: 88%; residual activity [29]: 100%; residual activity [30]: 100%; residual activity [31]: 100%; residual activity [32]: 75%; residual activity [33]: 100%; residual activity [34]: 100%; residual activity [35]: 100%; residual activity [36]: 100%; inhibition [37]: -2.96%; inhibition [38]: 37.1%; inhibition [39]: 6.3%
